Assay results published in PubChem BioAssay (NCI).
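GI50 marks 50% less growth. TGI marks complete inhibition of growth.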

What was measured:
Test in all cases: NCI anticancer screen, dose series, 384-well format
[1] = test system: BT-549 breast
[2] = test system: KM12 colon
[3] = test system: SK-MEL-5 melanoma
[4] = test system: NCI/ADR-RES ovarian
[5] = test system: OVCAR-5 ovarian
[6] = test system: MDA-MB-468 breast
[7] = test system: EKVX NSCLC
[8] = test system: NCI-H522 lung
[9] = test system: T-47D breast
[10] = test system: M14 melanoma
[11] = test system: K-562 leukemia
[12] = test system: HS 578T breast
[13] = test system: OVCAR-8 ovarian
[14] = test system: COLO 205 colon
[15] = test system: HOP-92 NSCLC
[16] = test system: HCT-15 colon
[17] = test system: IGROV1 ovarian
[18] = test system: SW-620 colon
[19] = test system: MDA-MB-435 melanoma
[20] = test system: HL-60(TB) leukemia
[21] = test system: ACHN renal
[22] = test system: A549 NSCLC
[23] = test system: SF-539 CNS
[24] = test system: SK-OV-3 ovarian
[25] = test system: PC-3 prostate
[26] = test system: UACC-62 melanoma
[27] = test system: OVCAR-4 ovarian
[28] = test system: SK-MEL-28 melanoma
[29] = test system: MOLT-4 leukemia
[30] = test system: SF-295 CNS
[31] = test system: OVCAR-3 ovarian
[32] = test system: SR leukemia
[33] = test system: LOX IMVI melanoma
[34] = test system: RPMI-8226 leukemia
[35] = test system: HT29 colon
[36] = test system: SNB-19 CNS
[37] = test system: UACC-257 melanoma
[38] = test system: MDA-MB-231 breast
[39] = test system: NCI-H226 lung
[40] = test system: SNB-75 CNS
[41] = test system: UO-31 renal
[42] = test system: CAKI-1 renal
[43] = test system: TK-10 renal
[44] = test system: HOP-62 NSCLC
[45] = test system: A498 renal
[46] = test system: MCF7 breast
[47] = test system: NCI-H460 NSCLC
[48] = test system: NCI-H23 lung
[49] = test system: RXF 393 renal
[50] = test system: MALME-3M melanoma
[51] = test system: NCI-H322M lung
[52] = test system: DU-145 prostate
[53] = test system: 786-0 renal
[54] = test system: HCC-2998 colon
[55] = test system: SF-268 CNS
[56] = test system: CCRF-CEM leukemia

Cn1c(=O)n(-c2ccc(C(C)(C)C#N)cc2)c2c3cc(-c4cnc5ccccc5c4)ccc3ncc21
GI50 [1]: < 0.01 µM | TGI [1]: 0.0628 µM | GI50 [2]: 0.0135 µM | TGI [2]: 1.29 µM | GI50 [3]: 0.0127 µM | TGI [3]: 0.0411 µM | GI50 [4]: 0.0297 µM | TGI [4]: 8.07 µM | GI50 [5]: 0.0133 µM | TGI [5]: 0.298 µM | GI50 [6]: < 0.01 µM | TGI [6]: 0.0304 µM | GI50 [7]: < 0.01 µM | TGI [7]: 0.0851 µM | GI50 [8]: 0.0104 µM | TGI [8]: 0.237 µM | GI50 [9]: < 0.01 µM | TGI [9]: 0.0197 µM | GI50 [10]: 0.0136 µM | TGI [10]: 0.599 µM | GI50 [11]: 0.0139 µM | TGI [11]: 12.8 µM | GI50 [12]: < 0.01 µM | TGI [12]: 0.0198 µM | GI50 [13]: < 0.01 µM | TGI [13]: > 100 µM | GI50 [14]: 0.0215 µM | TGI [14]: 0.262 µM | GI50 [15]: < 0.01 µM | TGI [15]: 0.0642 µM | GI50 [16]: < 0.01 µM | TGI [16]: > 100 µM | GI50 [17]: < 0.01 µM | TGI [17]: 0.0286 µM | GI50 [18]: 0.0282 µM | TGI [18]: > 100 µM | GI50 [19]: 0.0176 µM | TGI [19]: 0.492 µM | GI50 [20]: 0.104 µM | TGI [20]: 1.11 µM | GI50 [21]: < 0.01 µM | TGI [21]: > 100 µM | GI50 [22]: < 0.01 µM | TGI [22]: 1.33 µM | GI50 [23]: < 0.01 µM | TGI [23]: 0.707 µM | GI50 [24]: < 0.01 µM | TGI [24]: 0.0602 µM | GI50 [25]: < 0.01 µM | TGI [25]: 2.11 µM | GI50 [26]: < 0.01 µM | TGI [26]: 0.101 µM | GI50 [27]: < 0.01 µM | TGI [27]: 0.0272 µM | GI50 [28]: 0.0135 µM | TGI [28]: 0.095 µM | GI50 [29]: < 0.01 µM | TGI [29]: 0.086 µM | GI50 [30]: < 0.01 µM | TGI [30]: 0.0315 µM | GI50 [31]: 0.0123 µM | TGI [31]: 1.7 µM | GI50 [32]: < 0.01 µM | TGI [32]: 0.0172 µM | GI50 [33]: < 0.01 µM | TGI [33]: 0.0698 µM | GI50 [34]: < 0.01 µM | GI50 [35]: 0.0295 µM | TGI [35]: > 100 µM | GI50 [36]: 0.0408 µM | TGI [36]: > 100 µM | GI50 [37]: 0.0214 µM | TGI [37]: 0.0937 µM | GI50 [38]: < 0.01 µM | TGI [38]: > 100 µM | GI50 [39]: < 0.01 µM | TGI [39]: 0.0623 µM | GI50 [40]: < 0.01 µM | TGI [40]: 0.0809 µM | GI50 [41]: 0.0196 µM | TGI [41]: > 100 µM | GI50 [42]: 0.0127 µM | TGI [42]: > 100 µM | GI50 [43]: 0.0239 µM | TGI [43]: 0.126 µM | GI50 [44]: < 0.01 µM | TGI [44]: 0.191 µM | GI50 [45]: < 0.01 µM | TGI [45]: 0.0168 µM | GI50 [46]: < 0.01 µM | TGI [46]: 0.185 µM | GI50 [47]: < 0.01 µM | TGI [47]: 0.532 µM | GI50 [48]: 0.0345 µM | TGI [48]: 0.723 µM | GI50 [49]: < 0.01 µM | TGI [49]: > 100 µM | GI50 [50]: < 0.01 µM | TGI [50]: 0.023 µM | GI50 [51]: 0.0121 µM | TGI [51]: 2.56 µM | GI50 [52]: < 0.01 µM | TGI [52]: > 100 µM | GI50 [53]: < 0.01 µM | TGI [53]: 1.19 µM | GI50 [54]: < 0.01 µM | TGI [54]: 0.48 µM | GI50 [55]: 0.0194 µM | TGI [55]: 3.36 µM | GI50 [56]: < 0.01 µM | TGI [56]: 0.103 µM
